In patent publication US20070027121A1, “Method of treatment of diarrhea-predominant IBS in a female subject receiving contraceptive therapy” (priority 2005, published 2007):

Columns and labels:
[1] = set-up: dose or concentration left out as unconfirmed; details: co-administration with oral contraceptive containing; cited from earlier work
[2] = set-up: species or system human; details: in vivo
Experimental: A double-blind, balanced, randomized, two-period, placebo-controlled, crossover study in 20 healthy female subjects (1845 years of age, and who had received Ortho Tri-Cyclen® oral contraceptive (“OC”) for three or more months immediately preceding the start of the study) of cilansetron administration was conducted. All subjects were to have their OC cycles synchronized so that on study Day 1, they received the first dose of their OC for that cycle. All subjects were to continue to receive daily administrations of OC through each of the two consecutive 28-day study periods. […] In addition, during the first 28 days of the study (“the first period”), half of the subjects were administered 2 mg doses of cilansetron three times daily (TID) for 7 days (i.e., study days 14-21), while the other half of the subjects received equivalent doses of a placebo TID. On the first day of the “second period” of the 56-day study (i.e., day 29), the two groups were crossed over for the administration of the reverse treatment (i.e., those subjects who had been administered cilansetron 2 mg TID in the first period were to receive equivalent placebo administrations, and vice versa) for 7 days (i.e., study days 4249). Thereby, all subjects received both cilansetron and placebo treatments and, therefore, served as their own control. Safety was measured by monitoring adverse events, physical examination, clinical laboratory and pulmonary function tests, vital signs, 12 lead ECG, and telemetry. […]
The mean plasma concentration-time profile for EE was determined for both treatment groups in each of the two study periods, and are set forth in Table 1 (the contents of which are graphically illustrated in FIG. 1). The mean plasma concentration-time profile for NGM was determined for both treatment groups in each of the two study periods, and are set forth in Table 2. The mean plasma concentration-time profile for 17-d-NGM was determined for both treatment groups in each of the two study periods, and are set forth in Table 3 (the contents of which are graphically illustrated in FIG. 2). […]

[3] = test system: follicle stimulating hormone (FSH); test: Mean serum concentration of FSH in crossover study of OC plus cilansetron or placebo; format: in vivo, human; details: FIG. 4
Experimental: (§1) A double-blind, balanced, randomized, two-period, placebo-controlled, crossover study in 20 healthy female subjects (1845 years of age, and who had received Ortho Tri-Cyclen® oral contraceptive (“OC”) for three or more months immediately preceding the start of the study) of cilansetron administration was conducted. All subjects were to have their OC cycles synchronized so that on study Day 1, they received the first dose of their OC for that cycle. All subjects were to continue to receive daily administrations of OC through each of the two consecutive 28-day study periods. […] Safety was measured by monitoring adverse events, physical examination, clinical laboratory and pulmonary function tests, vital signs, 12 lead ECG, and telemetry.
(§2) In efforts to determine the effects (if any) of cilansetron 2 mg administration TID for 7 days on the pharmacodynamics of progesterone (P), luteinizing hormone (LH) and follicle stimulating hormone (FSH), the mean serum concentrations of these hormones was determined across the entire time-course of treatment, as set forth in Tables 6-8 and FIGS. 4-6. […]
(§3) Measurable serum concentrations of […], LH and P were available for 17 out of the 20 subjects, as determined using a validated ADVIA Centaur assay. […]

progesterone (P) = test: Mean serum concentration of progesterone (P) in crossover study of OC plus cilansetron or placebo; format: in vivo, human; details: FIG. 6
Experimental: as §1, §2, §3

luteinizing hormone (LH) = test: Mean serum concentration of LH in crossover study of OC plus cilansetron or placebo; format: in vivo, human; details: FIG. 5
Experimental: as §1, §2, §3

| Compound | decrease in systemic exposure to the EE component [1] | decrease in systemic exposure to the LN component [1] | effect on the pharmacokinetic and pharmacodynamic profiles and parameters associated with normal contraceptive use [2] | mean plasma concentration of 17-d-NGM compared with OC therapy alone [2] | mean plasma concentration of EE compared with OC therapy alone [2] | mean serum concentration of FSH compared with OC therapy alone [3] | mean serum concentration of endogenous progesterone (P) compared with OC therapy alone (progesterone (P)) | mean serum concentration of LH compared with OC therapy alone (luteinizing hormone (LH)) |
| --- | --- | --- | --- | --- | --- | --- | --- | --- |
| Cc1[nH]cnc1CN1CCc2c(c3ccccc3n2C)C1=O [alosetron] | 9% | 13% | – | – | – | – | – | – |
| Cc1nccn1C[C@H]1CCc2c(c3cccc4c3n2CCC4)C1=O [cilansetron, (R)-(−)-4,5,6,8,9,10-hexahydro-10-[(2-methyl-1H-imidazol-1-yl)methyl]-11H-pyrido-[3,2,1-jk]-carbazol-11-one] | – | – | substantially no or no effect | substantially the same | substantially the same | substantially the same | substantially the same | substantially the same |
